Key:
[1] = molecular target: T1, full-length S33E/S37A β-catenin protein ubiquitylation by SCFβ-TrCP (Homo sapiens, UniProt P35222+Q9Y297, S33E/S37A); experiment: In vitro ubiquitylation of full-length S33E/S37A β-catenin protein; assay type: biochemical
T1 construct: 6xHis-SMT3 (N, cleaved yes); host or cells: HEK293T (β-catenin); E. coli (β-TrCP1/Skp1); E. coli or SF9 (Cul1-Rbx1)
Protocol: (§1) Four micromolar of fluorescently-labeled β-catenin peptide (residues 17–60) were ubiquitylated in a buffer containing 25 mM Tris Cl (pH 7.5), 50 mM NaCl, 5 mM MgCl2, 2 mM ATP, and 1 mM DTT at room temperature in the presence of 62.5 μM Ubiquitin, 125 nM Ube1, 1.75 μM Cdc34A, and 100 nM neddylated SCF^β-TrCP in the presence or absence of compound (as indicated). Typically, individual reaction mixes with either Ubiquitin, Ube1 and Cdc34A or β-catenin, SCF^β-TrCP and compound were preincubated and subsequently mixed to initiate β-catenin ubiquitylation. Reactions were quenched by SDS loading buffer, resolved by SDS-PAGE and imaged for fluorescence. For full length β-catenin protein ubiquitylation 400 nM β-catenin and 400 nM SCF^β-TrCP were used instead.

[2] = molecular target: T2, endogenous S37A mutant β-catenin (Homo sapiens, UniProt P35222+Q9Y297, S37A); experiment: Degradation of endogenous S37A β-catenin in TOV-112D cells; assay type: cell-based
T2 construct: host or cells: TOV-112D

[3] = molecular target: T3, S33E/S37A β-catenin:β-TrCP interaction (Homo sapiens, UniProt P35222+Q9Y297, S33E/S37A); experiment: Pull down from HEK293T cells treated with compound; assay type: cell-based; details: 50 μM, 6 h
T3 construct: a ternary complex with the full-length S33E/S37A β-catenin and β-TrCP in cells; evaluated for their ability to pull down endogenous β-TrCP; expressed in transfected cells; host or cells: HEK293T (transient, FuGeneHD); β-TrCP endogenous
T3 sequence (P35222 whole entry S33E/S37A): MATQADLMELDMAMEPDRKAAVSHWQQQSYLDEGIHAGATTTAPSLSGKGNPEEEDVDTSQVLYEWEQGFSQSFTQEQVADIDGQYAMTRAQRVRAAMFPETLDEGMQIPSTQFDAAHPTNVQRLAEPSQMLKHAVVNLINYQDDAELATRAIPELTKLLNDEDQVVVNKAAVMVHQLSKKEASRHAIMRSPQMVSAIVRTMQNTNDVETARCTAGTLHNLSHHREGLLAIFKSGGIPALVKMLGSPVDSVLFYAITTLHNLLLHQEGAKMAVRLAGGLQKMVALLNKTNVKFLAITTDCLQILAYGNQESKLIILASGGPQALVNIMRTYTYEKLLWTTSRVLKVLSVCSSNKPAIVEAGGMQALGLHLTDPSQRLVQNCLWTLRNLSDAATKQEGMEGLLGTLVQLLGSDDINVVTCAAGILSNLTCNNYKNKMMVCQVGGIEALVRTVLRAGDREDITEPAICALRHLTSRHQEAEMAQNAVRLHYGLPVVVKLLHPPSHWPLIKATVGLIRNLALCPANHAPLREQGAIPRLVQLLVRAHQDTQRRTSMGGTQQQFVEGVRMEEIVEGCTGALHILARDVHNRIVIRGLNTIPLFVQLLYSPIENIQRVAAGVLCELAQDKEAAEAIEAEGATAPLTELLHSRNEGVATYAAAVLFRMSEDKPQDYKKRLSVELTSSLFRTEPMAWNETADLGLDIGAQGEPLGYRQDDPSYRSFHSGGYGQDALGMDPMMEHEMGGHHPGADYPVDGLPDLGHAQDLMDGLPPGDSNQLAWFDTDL
T3 sequence (Q9Y297 whole entry, stated change not applied): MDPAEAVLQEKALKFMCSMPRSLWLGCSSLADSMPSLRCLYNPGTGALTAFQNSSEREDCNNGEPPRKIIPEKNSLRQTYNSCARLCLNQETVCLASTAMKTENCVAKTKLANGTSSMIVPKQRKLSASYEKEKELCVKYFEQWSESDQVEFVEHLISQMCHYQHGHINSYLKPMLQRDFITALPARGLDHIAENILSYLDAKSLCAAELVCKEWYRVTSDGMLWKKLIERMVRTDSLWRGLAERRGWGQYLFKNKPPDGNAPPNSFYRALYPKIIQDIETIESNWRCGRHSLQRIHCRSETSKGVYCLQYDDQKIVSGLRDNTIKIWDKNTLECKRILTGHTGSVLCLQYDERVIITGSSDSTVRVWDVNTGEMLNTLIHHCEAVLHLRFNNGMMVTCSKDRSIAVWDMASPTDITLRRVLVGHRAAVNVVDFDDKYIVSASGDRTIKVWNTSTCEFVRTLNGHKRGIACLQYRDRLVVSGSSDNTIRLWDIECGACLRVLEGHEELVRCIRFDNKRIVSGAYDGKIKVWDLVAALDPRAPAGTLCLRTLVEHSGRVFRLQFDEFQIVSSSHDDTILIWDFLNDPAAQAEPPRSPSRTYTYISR
T3 sequence (P63208 whole entry partner): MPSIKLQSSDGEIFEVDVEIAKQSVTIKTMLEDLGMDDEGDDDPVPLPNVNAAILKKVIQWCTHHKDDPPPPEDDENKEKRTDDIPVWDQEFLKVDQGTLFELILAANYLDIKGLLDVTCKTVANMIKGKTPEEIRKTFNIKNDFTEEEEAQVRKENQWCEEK
Protocol: Pull down from cells treated with compound: HEK293T cells were plated in 10 cm dishes at a density of 1.2 × 10^6 cells per plate. Cells were transfected 24 h later with 2.5 µg of a WT or S33E/S37A Myc/FLAG-tagged β-catenin expression construct using the transfection reagent FuGeneHD. […] Cells were then liberated from 10 cm dishes using a cell scraper, pelleted, washed with PBS, resuspended in an equal volume of hypotonic lysis buffer (20 mM HEPES 7.5, 5 mM KCl, 1.5 mM MgCl2, 2 mM DTT, 0.01% TX-100, protease and phosphatase inhibitors, 1% DMSO), and sheered by eight passages through 21 G and 25 G needles. Samples were then supplemented up to 150 mM NaCl and clarified by centrifugation. Thirty microliters of each lysate was incubated over 10 µL of anti-c-myc magnetic beads (Pierce, Catalog #PI88842) and incubated at room temp with rotation for 30 min. Beads were pelleted, washed twice with lysis buffer, and resuspended in SDS loading buffer. Samples were analyzed by western blot.

[4] = molecular target: T4, pSer33/S37A β-catenin peptide ubiquitylation by SCFβ-TrCP (Homo sapiens, UniProt P35222+Q9Y297, S37A); experiment: In vitro ubiquitylation of pSer33/S37A β-catenin peptide; assay type: biochemical; details: forms long ubiquitin chains
T4 construct: fluorescently-labeled β-catenin peptide (residues 17–60; as indicated) was ubiquitylated; 6xHis-SMT3 (N, cleaved yes); made in house; host or cells: E. coli (β-TrCP1/Skp1); E. coli or SF9 (Cul1-Rbx1)
Protocol: as §1

[5] = molecular target: T3, S33E/S37A β-catenin:β-TrCP interaction; experiment: Lysate pulldown with recombinant β-catenin (HEK293T lysate); details: anti-myc pulldown
Protocol: Lysate pulldown with recombinant β-catenin: HEK293T cells were lysed by freeze thaw in lysis buffer (1× PBS, 2 mM DTT, 0.01% Triton X-100, proteases inhibitors (Sigma, P2714 and 11836170001), phosphatase inhibitors (Sigma, P5726 and P0044), 5 nM Calyculin A (Sigma, C5552)) at 85 µL of buffer to 1 × 10^6 cells. Lysates were clarified by centrifugation at 20,000 × g for 20 min at 4 °C and the supernatant was collected for subsequent use. Purified Myc/FLAG-tagged wild-type β-catenin protein at 2 µM was pretreated with 1 µM GSK3β (EMD Millipore, 14-306), 50 nM Axin (Enzo Life Sciences, ENZ-PRT130-0020), 200 nM CK1α (Life Technologies, PV3850), and 2 mM ATP at 30 °C for 60 min. This phosphorylated β-catenin, unphosphorylated WT β-catenin, or S33E/S37A β-catenin were each diluted into lysate to 100 nM, at the indicated compound concentrations, at a final DMSO concentration of 1% DMSO. Thirty-five microliters of these mixtures were incubated over 10 µL of anti-c-myc magnetic beads (Pierce, Catalog #PI88842), with rotation, at room temperature for 2 h. Beads were then pelleted, washed twice with 200 µL cold wash buffer (1×PBS, 2 mM DTT, 0.01% TX-100, 1% DMSO) containing compound at the same incubation concentration. Washed beads were resuspended in 30 µL SDS loading dye and analyzed by western analysis.

[6] = molecular target: T5, S33E/S37A mutant β-catenin (Homo sapiens, UniProt P35222+Q9Y297, S33E/S37A); experiment: β-catenin degradation in HEK293T cells stably expressing S33E/S37A β-catenin; assay type: cell-based; details: HEK293T stable line, 6 h, western
T5 construct: Full-length β-catenin (Myc/FLAG-tagged; Origene); expressed in transfected cells
Protocol: HEK293T cells were plated in a 10 cm dish in regular growth media (DMEM + 10% FBS) and allowed to adhere to the plate overnight. The following day, cells were transfected with S33E/S37 β-catenin using FuGeneHD transfection reagent. Transfected cells were then selected with media containing 700 μg/ml Geneticin. A pooled population of selected cells were used for all described experiments.
HEK293T cells expressing S33E/S37A β-catenin were plated in six-well plates at a density of 9 × 10^5 cells/well. The following day, cells were incubated with compounds diluted in regular growth media to the appropriate concentration. The final concentration of DMSO for all cell treatments was kept at 0.5% or less. Cell treatments with the Nedd8 inhibitor (MLN4924) and the proteasome inhibitor (MG132) were performed at a final concentration of 5 μM and 10 μM respectively. Cycloheximide treatment was performed at a final concentration of 100 μg/ml.

[7] = molecular target: T6, Ser33/S37A β-catenin peptide ubiquitylation by SCFβ-TrCP (Homo sapiens, UniProt P35222+Q9Y297, S37A); experiment: In vitro ubiquitylation of Ser33/S37A β-catenin peptide; assay type: biochemical
T6 construct: Ubiquitylation of Ser33/S37A β-catenin peptide (residues 17–60) by SCF^β-TrCP; 6xHis-SMT3 (N, cleaved yes); made in house; host or cells: E. coli (β-TrCP1/Skp1); E. coli or SF9 (Cul1-Rbx1)
Protocol: as §1

T1 sequence (Q9Y297 1-569 isoform Q9Y297-2, stated change not applied): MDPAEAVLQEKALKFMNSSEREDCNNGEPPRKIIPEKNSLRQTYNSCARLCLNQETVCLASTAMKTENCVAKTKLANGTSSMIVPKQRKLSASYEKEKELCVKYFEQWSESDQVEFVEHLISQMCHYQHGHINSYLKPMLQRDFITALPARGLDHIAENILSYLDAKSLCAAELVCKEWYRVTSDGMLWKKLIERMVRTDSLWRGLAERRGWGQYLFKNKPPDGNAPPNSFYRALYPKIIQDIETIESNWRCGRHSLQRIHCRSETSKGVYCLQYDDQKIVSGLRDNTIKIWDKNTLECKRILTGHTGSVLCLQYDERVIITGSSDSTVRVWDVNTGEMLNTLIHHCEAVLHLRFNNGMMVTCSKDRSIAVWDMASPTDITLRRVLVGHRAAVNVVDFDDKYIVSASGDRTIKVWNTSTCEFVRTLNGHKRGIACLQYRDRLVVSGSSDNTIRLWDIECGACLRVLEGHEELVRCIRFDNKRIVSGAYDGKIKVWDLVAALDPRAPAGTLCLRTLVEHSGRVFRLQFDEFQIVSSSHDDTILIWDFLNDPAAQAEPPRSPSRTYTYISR
T1 sequence (P63208 whole entry partner): as the sequence (P63208 whole entry partner) above
T1 sequence (Q13616 whole entry partner): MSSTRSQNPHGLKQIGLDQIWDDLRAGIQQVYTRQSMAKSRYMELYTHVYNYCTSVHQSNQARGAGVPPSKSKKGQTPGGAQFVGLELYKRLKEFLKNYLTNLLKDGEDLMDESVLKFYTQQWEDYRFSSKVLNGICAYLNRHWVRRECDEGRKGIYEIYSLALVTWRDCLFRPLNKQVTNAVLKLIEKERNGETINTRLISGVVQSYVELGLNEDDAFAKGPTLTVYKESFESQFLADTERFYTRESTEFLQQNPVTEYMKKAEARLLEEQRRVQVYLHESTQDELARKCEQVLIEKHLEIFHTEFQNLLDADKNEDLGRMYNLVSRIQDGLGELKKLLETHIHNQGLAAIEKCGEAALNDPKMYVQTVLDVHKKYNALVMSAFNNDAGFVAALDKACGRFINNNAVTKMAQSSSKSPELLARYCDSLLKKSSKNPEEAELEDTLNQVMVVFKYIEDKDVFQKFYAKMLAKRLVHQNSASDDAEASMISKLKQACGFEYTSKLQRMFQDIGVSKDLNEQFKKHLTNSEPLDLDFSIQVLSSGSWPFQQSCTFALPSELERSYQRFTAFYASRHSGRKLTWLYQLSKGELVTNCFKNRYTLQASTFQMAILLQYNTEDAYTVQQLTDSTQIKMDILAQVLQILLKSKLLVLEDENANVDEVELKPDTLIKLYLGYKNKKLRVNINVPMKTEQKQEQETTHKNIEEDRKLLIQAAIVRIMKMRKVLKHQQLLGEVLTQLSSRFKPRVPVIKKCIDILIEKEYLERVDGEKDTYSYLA
T1 sequence (P62877 whole entry partner): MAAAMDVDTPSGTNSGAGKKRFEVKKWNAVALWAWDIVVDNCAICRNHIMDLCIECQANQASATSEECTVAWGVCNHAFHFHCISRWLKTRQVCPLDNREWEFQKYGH
T1 sequence (Q15843 1-76 partner limits assumed): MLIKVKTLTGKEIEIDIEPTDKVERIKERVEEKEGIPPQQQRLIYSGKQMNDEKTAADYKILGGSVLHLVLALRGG
T1 sequence (P35222 whole entry S33E/S37A): as the sequence (P35222 whole entry S33E/S37A) above

## N#Cc1cccc2c1CN(C(=O)c1c(Sc3c(Cl)cccc3Cl)cc(C(F)(F)F)[nH]c1=O)C2 [NRX-252114]
[1]
  ligand concentration at which ubiquitin chain formation resembles WT β-catenin protein: ≥ 10 µM
[1]; varying concentration
  enhancement of ubiquitylation of S33E/S37A β-catenin protein: markedly enhances
[2]
  degradation of endogenous S37A mutant β-catenin: did not induce degradation
[3]
  S33E/S37A β-catenin:β-TrCP interaction in transfected cells: robust S33E/S37A β-catenin:β-TrCP interaction
[4]
  enhancement of ubiquitylation of pSer33/S37A β-catenin peptide: further enhances
[5]
  interaction of S33E/S37A β-catenin with endogenous β-TrCP in cell lysate: dose-dependent interaction
[6]
  concentration at which degradation of S33E/S37A mutant β-catenin starts: ~ 50 μM
[7]
  ubiquitylation of unphosphorylated Ser33/S37A β-catenin peptides: potentiates the ubiquitylation

From PMC6441019, “Prospective discovery of small molecule enhancers of an E3 ligase-substrate interaction” (Nature Communications, 2019)
